Results as given in patent US5696112A, “Fused heterocyclic azepines as vasopressin antagonists” (American Cyanamid Company, priority 1995, dated 1997).

Experiments:
[1] = molecular target: T1, Rat Kidney Medullary V2 Receptors (vasopressin V2) (Rattus norvegicus, UniProt Q00788); test: Binding Assay to Rat Kidney Medullary V2 Receptors; settings: rat kidney medullary V2, [3H]Arg8-vasopressin
T1 construct: Medullary tissues from rat kidneys are dissected out; from tissue; host or cells: rat kidney medulla membranes
Description: Binding Assay to Rat Kidney Medullary V2 Receptors
Medullary tissues from rat kidneys are dissected out, cut into small pieces and let soak in a […] sodium chloride solution containing 1.0 mM EDTA with many changes of the liquid phase, until the solution is clear of blood. The tissue is homogenized in a 0.25M sucrose solution containing 1.0 mM EDTA and 0.1 mM PMSF using a Potter-Elvehjem homogenizer with a teflon pestle. The homogenate is filtered through several layers (4 layers) of cheese cloth. The filtrate is rehomogenized using a dounce homogenizer, with a tight fitting pestle. The final homogenate is contrifuged at 1500×g for 15 min. The nuclear pellet is discarded and the supernatant fluid recentrifuged at 40,000×g for 30 min. The resulting pellet formed contains a dark inner part with the exterior, slightly pink. The pink outer part is suspended in a small amount of 50.0 mMTris.HCl buffer, pH 7.4. The protein content is determined by the Lowry's method (Lowry et al, J. Biol. Chem., 1953). The membrane suspension is stored at -70° C., in 50.0 mMTris.HCl, containing 0.2% inactivated BSA and 0.1 mM PMSF in aliquots of 1.0 ml containing 10.0 mg protein per ml of suspension until use in subsequent binding experiments.
For binding experiments, the following is added in μl volume to wells of a 96 well format of a microtiter plate: 100.0 μl of 100.0 mM Tris.HCl buffer containing 0.2% heat inactivated BSA, 10.0 mM MgCl2 and a mixture of protease inhibitors: leupeptin, 1.0 mg %; aprotinin, 1.0 mg %; 1,10-phenanthroline, 2.0 mg %; trypsin inhibitor, 10.0 mg % and 0.1 mM PMSF, 20.0 μl of [^3 H]Arginine^8, vasopressin (S.A. 75.0 Ci/mmole) at 0.8 nM and the reaction initiated by the addition of 80.0 μl of tissue membranes (200.0 μg tissue protein). The plates are left undisturbed on the bench top for 120 min. to reach equilibrium. Non-specific binding is assessed in the presence of 1.0 μM of unlabeled ligand, added in 20 μl volume. For test compounds, these are solubilized in 50% dimethylsulfoxide (DMSO) and added in 20.0 μl volume to a final incubation volume of 200 μl. Upon completion of binding, the content of each well is filtered off, using a Brandel® cell Harvester (Gaithersburg, Md.). The radioactivity trapped on the filter disk by the ligand-receptor complex is assessed by liquid scintillation counting in a Packard LS Counter, with an efficiency of 65% for tritium. The data are analyzed for IC50 values by the LUNDON-2 program for competition (LUNDON SOFTWARE, OH).

[2] = molecular target: T2, Rat Hepatic V1 Receptors (vasopressin V1) (Rattus norvegicus, UniProt P30560); test: Binding Assay to Rat Hepatic V1 Receptors; settings: rat hepatic V1, [3H]vasopressin
T2 construct: Rat liver plasma membranes expressing the vasopressin V1 receptor subtypes are isolated by sucrose density gradient; from tissue; host or cells: rat liver plasma membranes
Description: Binding Assay to Rat Hepatic V1 Receptors
Rat liver plasma membranes expressing the vasopressin V1 receptor subtypes are isolated by sucrose density gradient according to the method described by Lesko et al., (1973). These membranes are quickly suspended in 50.0 mMTris.HCl buffer, pH 7.4, containing 0.2% bovine serum albumin (BSA) and 0.1 mM phenylmethylsulfonylfluoride (PMSF) and kept frozen at -70° C. until used in subsequent binding experiments. For binding experiments, the following is added to the wells of a ninety-six well format microtiter plate: 100 μl of 100.0 mM Tris.HCl buffer containing 10.0 mM MgCl2, 0.2% heat inactivated BSA and a mixture of protease inhibitors: leupeptin, 1.0 mg %; aprotinin, 1.0 mg %, 1,10-phenanthroline,2.0 mg %; trypsin inhibitor, 10.0 mg % and 0.1 mM PMSF, 20.0 μl of [phenylalanyl-3,4,5-^3 H]vasopressin (S.A. 45.1 Ci/mmole) at 0.8 nM, and the reaction initiated by the addition of 80 μl of tissue membranes containing 20 μg of tissue protein. The plates are kept undisturbed on the bench top at room temperature for 120 min. to reach equilibrium. Nonspecific samples are assayed in the presence of 0.1 μM of the unlabeled antagonist phenylalanylvasopressin, added in 20.0 μl volume to a final incubation volume of 200 μl. Upon completion of binding, the content of each well is filtered off, using a Brandel® cell Harvester (Gaithersburg, Md.). The radioactivity trapped on the filter disk by the ligand-receptor complex is assessed by liquid scintillation counting in a Packard LS Counter, with an efficiency of 65% for tritium. The data are analyzed for IC50 values by the LUNDON-2 program for competition (LUNDON SOFTWARE, OH).

Vasopressin V2 = Vasopressin V2 Antagonist Activity in Conscious Hydrated Rats; type: in vivo, rat; settings: AVP 0.4 μg/kg i.p.
Description: Vasopressin V2 Antagonist Activity in conscious Hydrated Rats Conscious hydrated rats are treated with compounds under study from 0.1 to 100 mg/kg orally or vehicle. Two to four rats are used for each compound. One hour later, arginine vasopressin (AVP, antidiuretic hormone, ADH) dissolved in peanut oil is administered at 0.4 μg/kg intraperitoneally. Two rats in each test would not receive arginine vasopressin but only the vehicle (peanut oil) to serve as water-loading control. Twenty minutes later each rat is given 30 mL/kg of deionized water orally by gavage and is placed individually in a metabolic cage equipped with a funnel and a graduated glass cylinder to collect urine for four hours. Urine volume is measured and osmolality analyzed by use of a Fiske One-Ten osmometer (Fiske Assoc., Norwood, Mass. USA). Urinary sodium, potassium, and chloride are analyzed by use of ion-specific electrodes in a Beckman E3 (Electrolyte 3) Analyzer. In the following results, […] and […] osmolality relative to AVP-control indicates activity.

oxytocin receptors = molecular target: T3, oxytocin receptors (Rattus norvegicus, UniProt P70536); test: Oxytocin Receptor Binding; design: species or system Sprague-Dawley rats
T3 construct: The uteri are dissected out, cleaned of fat and connective tissues; from tissue; host or cells: uterus membranes of DES-treated female Sprague-Dawley rats
T3 sequence (P70536 1-388): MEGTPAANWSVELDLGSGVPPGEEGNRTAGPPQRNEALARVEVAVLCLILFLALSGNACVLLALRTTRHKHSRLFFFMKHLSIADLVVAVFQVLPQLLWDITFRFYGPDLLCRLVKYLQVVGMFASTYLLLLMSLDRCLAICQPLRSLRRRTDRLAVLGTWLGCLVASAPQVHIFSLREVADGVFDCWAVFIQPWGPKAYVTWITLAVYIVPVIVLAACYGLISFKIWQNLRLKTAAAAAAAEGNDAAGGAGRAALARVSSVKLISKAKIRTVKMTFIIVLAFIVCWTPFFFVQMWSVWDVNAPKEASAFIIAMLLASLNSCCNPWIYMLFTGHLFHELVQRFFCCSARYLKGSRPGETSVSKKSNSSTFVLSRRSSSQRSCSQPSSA
Description: Oxytocin Receptor Binding
Female Sprague-Dawley rats weighing approximately 200-250 g are injected intramuscularly (i.m.) with 0.3 mg/kg of body weight of diethylstilbestrol (DES). The rats are sacrificed 18 hours later under pentobarbital anesthesia. The uteri are dissected out, cleaned of fat and connective tissues and rinsed in 50 ml of normal saline. The tissue pooled from six rats is homogenized in 50 ml of 0.01 mMTris.HCl, containing 0.5 mM dithiothreitol and 1.0 mM EDTA, adjusted to pH 7.4, using a polytron at setting 6 with three passes of 10 sec each. The homogenate is passed through two (2) layers of cheesecloth and the filtrate centrifuged at 1000×g for 10 min. The clear supernatant is removed and recentrifuged at 165,000×g for 30 min. The resulting pellet containing the oxytocin receptors is resuspended in 50.0 mM Tris.HCl containing 5.0 mM MgCl2 at pH 7.4, to give a protein concentration of 2.5 mg/ml of tissue suspension. This preparation is used in subsequent binding assays with [^3 H]Oxytocin.
Binding of 3,5-[^3 H]Oxytocin ([^3 H]OT) to its receptors is done in microtiter plates using [^3 H]OT, at various concentrations, in an assay buffer of 50.0 mM Tris.HCl, pH 7.4 and containing 5.0 mM MgCl2, and a mixture of protease inhibitors: BSA, 0.1 mg; aprotinin, 1.0 mg; 1,10-phenanthroline, 2.0 mg; […], 10.0 mg; and PMSF, 0.3 mg per 100 ml of buffer solution. Nonspecific binding is determined in the presence of 1.0 uM unlabeled OT. The binding reaction is terminated after 60 min., at 22° C., by rapid filtration through glass fiber filters using a Brandel® cell harvester (Biomedical Research and Development Laboratories, Inc., Gaithersburg, Md.). Competition experiments are conducted at equilibrium using 1.0 nM [^3 H]OT and varying the concentration of the displacing agents. The concentrations of agent displacing 50% of [^3 H]OT at its sites (IC50) are calculated by a computer assisted LUNDON-2 program (LUNDON SOFTWARE INC., Ohio, USA).

T1 sequence (Q00788 whole entry): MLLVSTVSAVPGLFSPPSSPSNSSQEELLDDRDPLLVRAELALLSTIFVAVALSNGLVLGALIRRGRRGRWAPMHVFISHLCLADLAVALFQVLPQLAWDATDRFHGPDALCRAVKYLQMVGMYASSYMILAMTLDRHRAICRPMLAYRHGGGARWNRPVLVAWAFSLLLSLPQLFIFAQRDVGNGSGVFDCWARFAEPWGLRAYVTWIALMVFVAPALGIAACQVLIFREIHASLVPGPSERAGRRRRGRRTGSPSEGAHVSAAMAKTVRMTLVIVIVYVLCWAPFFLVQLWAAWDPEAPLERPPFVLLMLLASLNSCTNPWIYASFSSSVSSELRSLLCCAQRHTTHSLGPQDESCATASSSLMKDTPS
T2 sequence (P30560 whole entry): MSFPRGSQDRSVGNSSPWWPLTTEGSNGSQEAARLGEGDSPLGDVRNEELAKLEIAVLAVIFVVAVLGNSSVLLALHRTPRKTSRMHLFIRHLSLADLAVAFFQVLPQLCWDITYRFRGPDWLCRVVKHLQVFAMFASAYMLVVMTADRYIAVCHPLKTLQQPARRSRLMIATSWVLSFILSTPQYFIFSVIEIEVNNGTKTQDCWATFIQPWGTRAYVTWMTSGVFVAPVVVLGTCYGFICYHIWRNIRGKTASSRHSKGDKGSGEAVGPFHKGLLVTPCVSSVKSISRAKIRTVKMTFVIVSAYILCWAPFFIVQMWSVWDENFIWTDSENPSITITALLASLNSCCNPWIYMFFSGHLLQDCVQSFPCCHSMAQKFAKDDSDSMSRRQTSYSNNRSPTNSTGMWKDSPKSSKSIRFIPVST

Row | SMILES | IC50 [1] [µM] | IC50 [2] [µM] | further results
1 | O=C(Cc1ccccc1)Nc1ccc(C(=O)N2CCCCc3sccc32)cc1 [Example 12, N-[4-[(5,6,7,8-tetrahydro-4H-thieno[3,2-b]azepin-4-yl)carbonyl]phenyl]benzeneacetamide] | 0.036 | 0.26 | –
2 | Cc1ccsc1C(=O)Nc1ccc(C(=O)N2CCCCc3sccc32)cc1 [Example 7, N-[4-[(5,6,7,8-Tetrahydro-4H-thieno[3,2-b]azepin-4-yl)carbonyl]phenyl]3-methyl-2-thiophenecarboxamide] | 0.138 | 0.059 | Urine Volume (Vasopressin V2; 100 mg/kg P.O.): 6.2 ml/4 hours
3 | Cc1cccc(C(=O)Nc2ccc(C(=O)N3CCCCc4sccc43)cc2)c1C [Example 10, N-[4-[(5,6,7,8-Tetrahydro-4H-thieno[3,2-b]azepin-4-yl)carbonyl]phenyl]2,3-dimethylbenzamide] | 0.052 | 0.23 | –
4 | O=C(Nc1ccc(C(=O)N2CCCCc3sccc32)cc1)c1ccc(Cl)c(Cl)c1 [Example 1, N-[4-[(5,6,7,8-Tetrahydro-4H-thieno[3,2-b]azepin-4-yl)carbonyl]phenyl]-3,4-dichlorobenzamide] | 0.44 | 1.65 | –
5 | CCCCc1ccc(C(=O)Nc2ccc(C(=O)N3CCCCc4sccc43)cc2)cc1 [Example 6, N-[4-[(5,6,7,8-Tetrahydro-4H-thieno[3,2-b]azepin-4-yl)carbonyl]phenyl]4-(n-butyl)benzamide] | 3.4 | 50 | –
6 | CC(C)(C)c1ccc(C(=O)Nc2ccc(C(=O)N3CCCCc4sccc43)cc2)cc1 [Example 5, N-[4-[(5,6,7,8-Tetrahydro-4H-thieno[3,2-b]azepin-4-yl)carbonyl]phenyl]4-tert-butylbenzamide] | 21.4 | – | –
7 | CCCCOc1ccc(C(=O)N2CCCCc3sccc32)cc1 [Example 233, 4-[4-(n-Butyloxy)benzoyl]-5,6,7,8-tetrahydro-4H-thieno[3,2-b]azepine] | – | – | IC50 (oxytocin receptors; 1.0 nM [3H]oxytocin): 0.95 µM; inhibition at 10 µM (oxytocin receptors; 10 μM): 93%
8 | Cc1ccc(C(=O)Nc2ccc(C(=O)N3CCCCc4sccc43)cc2)c(C)c1 [Example 11, N-[4-[(5,6,7,8-Tetrahydro-4H-thieno[3,2-b]azepin-4-yl)carbonyl]phenyl]2,4-dimethylbenzamide] | 0.06 | 0.28 | Osmolality (Vasopressin V2; 30 mg/kg P.O.): 1420 mOsm/kg; Urine Volume (Vasopressin V2; 30 mg/kg P.O.): 5 ml/4 hours
9 | Cc1ccccc1C(=O)Nc1ccc(C(=O)N2CCCCc3sccc32)cc1 [Example 3, N-[4-[(5,6,7,8-Tetrahydro-4H-thieno[3,2-b]azepin-4-yl)carbonyl]phenyl]-2-methylbenzamide] | 0.023 | 0.077 | Osmolality (Vasopressin V2; 100 mg/kg P.O.): 1081 mOsm/kg; Urine Volume (Vasopressin V2; 100 mg/kg P.O.): 10 ml/4 hours
10 | O=C(Nc1ccc(C(=O)N2CCCCc3sccc32)cc1)c1coc2c1C(=O)CCC2 [Example 179] | 5.5 | 1.3 | –
11 | O=C(Nc1ccc(C(=O)N2CCCCc3sccc32)cc1)c1ccc2[nH]ccc2c1 [Example 180] | 0.37 | 8 | –
12 | Cc1ccc(C)c(C(=O)Nc2ccc(C(=O)N3CCCCc4sccc43)cc2)c1 [Example 8, N-[4-[(5,6,7,8-Tetrahydro-4H-thieno[3,2-b]azepin-4-yl)carbonyl]phenyl]2,5-dimethylbenzamide] | 0.12 | 0.2 | –
13 | O=C(Nc1ccc(C(=O)N2CCCCc3sccc32)cc1)c1ccco1 [Example 4, N-[4-[(5,6,7,8-Tetrahydro-4H-thieno[3,2-b]azepin-4-yl)carbonyl]phenyl]2-furanecarboxamide] | 1.8 | 0.4 | –
